Laboratory results: patent US9643964B2, “3-(2-aminopyrimidin-4-yl)-5-(3-hydroxypropynyl)-1H-pyrrolo[2,3-C]pyridine derivatives as NIK inhibitors for the treatment of cancer” (Janssen Pharmaceutica NV, priority 2013, dated 2017)

Legend:
[1] = target: T1, Recombinant Human NF-kappaB-Inducing Kinase (NIK/MAP3K14) (Homo sapiens, UniProt Q99558); test: Biological Assay A: inhibition of recombinant human NIK/MAP3K14 activity (MBP phosphorylation, Mesoscale); type: biochemical; settings: averaged over all measurements on all batches; read-out: Biochemical (MSD MBP) IC50
T1 sequence (Q99558 whole entry): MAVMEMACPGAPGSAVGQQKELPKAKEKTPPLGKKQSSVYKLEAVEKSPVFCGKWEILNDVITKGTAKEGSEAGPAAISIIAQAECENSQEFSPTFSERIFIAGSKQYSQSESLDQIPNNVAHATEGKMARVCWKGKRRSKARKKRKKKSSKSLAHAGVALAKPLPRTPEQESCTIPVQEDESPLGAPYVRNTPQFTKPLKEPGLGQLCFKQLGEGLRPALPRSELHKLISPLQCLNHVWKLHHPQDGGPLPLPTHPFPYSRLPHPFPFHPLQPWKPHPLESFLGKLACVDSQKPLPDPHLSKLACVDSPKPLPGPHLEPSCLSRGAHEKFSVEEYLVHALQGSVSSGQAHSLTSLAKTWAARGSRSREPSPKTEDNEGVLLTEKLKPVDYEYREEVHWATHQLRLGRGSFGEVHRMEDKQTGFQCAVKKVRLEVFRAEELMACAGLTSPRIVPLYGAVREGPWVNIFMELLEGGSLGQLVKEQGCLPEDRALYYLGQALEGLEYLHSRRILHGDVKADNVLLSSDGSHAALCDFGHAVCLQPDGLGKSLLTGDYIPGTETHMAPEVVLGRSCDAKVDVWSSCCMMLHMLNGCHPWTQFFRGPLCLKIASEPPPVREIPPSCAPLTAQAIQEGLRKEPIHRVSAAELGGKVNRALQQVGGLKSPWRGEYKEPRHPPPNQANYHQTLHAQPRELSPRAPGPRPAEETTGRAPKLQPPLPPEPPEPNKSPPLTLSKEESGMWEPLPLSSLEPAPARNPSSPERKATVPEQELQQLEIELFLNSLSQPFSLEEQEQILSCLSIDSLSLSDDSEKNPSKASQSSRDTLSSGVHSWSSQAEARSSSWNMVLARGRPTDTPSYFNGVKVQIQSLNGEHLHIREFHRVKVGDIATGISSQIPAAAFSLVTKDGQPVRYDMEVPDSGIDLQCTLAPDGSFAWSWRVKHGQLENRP
Protocol: Inhibition of Recombinant Human NF-kappaB-Inducing Kinase (NIK/MAP3K14) Activity
Assay buffer was 50 mM Tris pH 7.5 containing 1 mM EGTA (ethylene glycol tetraacetic acid), 1 mM DTT (dithiothreitol), 0.1 mM Na3VO4, 5 mM MgCl2, 0.01% Tween 20. Assays were carried out in 384 well Mesoscale high binding plates which had been coated with myelin basic protein (MBP) and blocked with bovine serum albumin to prevent non-specific protein binding. All compounds tested were dissolved in dimethyl sulfoxide (DMSO) and further dilutions were made in assay buffer. Final DMSO concentration was 1% (v/v) in assays. Incubations consisted of compound (1% DMSO in control and blank wells), 25 μM Adenosine-5′-triphosphate (ATP), and 10 nM NIK/MAP3K14 substituting enzyme with buffer in the blank wells. Incubations were carried out for 1 h at 25° C. and were followed by washing and sequential incubation with rabbit anti-phospho-MBP and anti-rabbit Ig Sulfotag antibody before reading bound Sulfotag on a Mesoscale Discovery. Signal obtained in the wells containing blank samples was subtracted from all other wells and IC50's were determined by fitting a sigmoidal curve to % inhibition of control versus Log10 compound concentration.

[2] = target: T1, Recombinant Human NF-kappaB-Inducing Kinase (NIK/MAP3K14); test: Biological Assay A2: inhibition of auto-phosphorylation of recombinant human NIK/MAP3K14 (AlphaScreen); type: biochemical; settings: auto-phosphorylation; averaged over all measurements on all batches; read-out: αscreen IC50
Method in brief: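 AlphaScreen readout of anti-phospho-IKK Ser176/180 signal after 1 h, 25° C. incubation of 0.2 nM GST-NIK with compound and 25 microM ATP (Tris pH 7.5 buffer, MgCl2, 1% DMSO final). IC50 from sigmoidal fit of blank-corrected % inhibition against Log10 concentration.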

[3] = system: P-IKKα levels in L363 cells; test: Biological Assay B: effect of compounds on P-IKKα levels in L363 cells; type: cell-based; settings: Homo sapiens, L-363, averaged values, read-out: IKKα Cellular IC50
Protocol: Effect of Compounds on P-IKKα Levels in L363 Cells
All compounds tested were dissolved in DMSO and further dilutions were made in culture medium. Final DMSO concentration was 1% (v/v) in cell assays. The human L363 cells (ATCC) were cultured in RPMI 1640 medium supplemented with GlutaMax and 10% fetal calf serum (PAA). Cells were routinely maintained at densities of 0.2×10^6 cells per ml-1×10^6 cells per ml at 37° C. in a humidified 5% CO2 atmosphere. Cells were passaged twice a week splitting back to obtain the low density. Cells were seeded in 96 well plates (Nunc 167008) at 2×10^6 per ml media in a volume of 75 μl per well plus 25 μl 1 μg/ml recombinant human B-cell activating factor BAFF/B1YS/TNFSF13B. Seeded cells were incubated at 37° C. in a humidified 5% CO2 atmosphere for 24 hr. Drugs and/or solvents were added (20 μl) to a final volume of 120 μl. Following 2 hr treatment plates were removed from the incubator and cell lysis was achieved by the addition of 30 μl 5× lysis buffer followed by shaking on a plate shaker at 4° C. for 10 min. At the end of this incubation lysed cells were centrifuged at 800×g for 20 min at 4° C. and the lysate was assessed for P-IKKα levels by sandwich immuno-assay carried out in anti-rabbit antibody coated Mesoscale plates. Within an experiment, the results for each treatment were the mean of 2 replicate wells. For initial screening purposes, compounds were tested using an 8 point dilution curve (serial 1:3 dilutions). For each experiment, controls (containing MG132 and BAFF but no test drug) and a blank incubation (containing MG132 and BAFF and 10 μM ADS125117, a test concentration known to give full inhibition) were run in parallel. The blank incubation value was subtracted from all control and sample values. To determine the IC50 a sigmoidal curve was fitted to the plot of % inhibition of control P-IKKα levels versus Log10 compound concentration.

[4] = system: LP-1 cells; test: Biological Assay C: antiproliferative activity on LP-1 cells (CellTiter-Glo); type: cell-based, human; settings: Homo sapiens, LP-1, 72 h, 72 hr treatment; averaged values
Method in brief: (§1)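 Luminescent ATP signal (CellTiter-Glo) measures growth of myeloma cells following a 72 h compound treatment. Values for the time-zero blank are subtracted, and each mean of duplicate wells is given as percentage of the no-drug control.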

[5] = system: L-363 cells; test: Biological Assay C: antiproliferative activity on L-363 cells (CellTiter-Glo); type: cell-based, human; settings: Homo sapiens, L-363, 72 h, 72 hr treatment; averaged values
Method in brief: as §1

[6] = system: JJN-3 cells; test: Biological Assay C: antiproliferative activity on JJN-3 cells (CellTiter-Glo); type: cell-based, human; settings: Homo sapiens, JJN-3, 72 h, 72 hr treatment; averaged values
Method in brief: as §1

SMILES | IC50 [1] [nM] | IC50 [2] [nM] | IC50 [3] [nM] | EC50 [4] [nM] | EC50 [5] [nM] | EC50 [6] [nM]
CC(C)(O)C#Cc1cc2c(-c3ccnc(N)n3)cn(CC3CCOC3)c2cn1 (stereo not drawn) [Compound 6] | 2.3 | 11 | 68 | 3000 | 790 | 860
CC(C)(O)C#Cc1cc2c(-c3ccnc(N)n3)cn(CCN3CCOCC3)c2cn1 [Compound 7] | 15 | 210 | 540 | 3200 | 1900 | 1900
CC(C)(O)C#Cc1cc2c(-c3nc(N)ncc3Cl)cn(CCO)c2cn1 [Compound 8] | 3.3 | 1 | 8 | 2700 | 250 | 94
Nc1nccc(-c2c[nH]c3cnc(C#CC4(O)CC4)cc23)n1 [Compound 9] | 1.1 | 2 | 37 | 1200 | 120 | 74
CC(O)C#Cc1cc2c(-c3ccnc(N)n3)cn(C(C)C)c2cn1 (stereo not drawn) [Compound 10] | 9.2 | 29 | 100 | 230 | 46 | 80
CC(C)(O)C#Cc1cc2c(-c3ccnc(N)n3)cn(CCCN)c2cn1 [Compound 11] | 8 | 27 | 300 | 600 | 130 | 41
CC(C)(O)C#Cc1cc2c(-c3ccnc(N)n3)cn(CCO)c2cn1 [Compound 12] | 7.4 | 3 | 150 | 12000 | 1200 | 1300
CC(C)(O)C#Cc1cc2c(-c3nc(N)ncc3Cl)c[nH]c2cn1 [Compound 14] | 0.9 | 0.4 | 11 | 390 | 75 | 75
CC(C)n1cc(-c2ccnc(N)n2)c2cc(C#CC(C)(C)O)ncc21 [Compound 15] | 4.8 | 12 | 16 | 370 | 44 | 120
CC(C)n1cc(-c2nc(N)ncc2Cl)c2cc(C#CC(C)(C)O)ncc21 [Compound 16] | 4.3 | 2 | 7.3 | 92 | 57 | 35
CC(C)n1cc(-c2nc(N)ncc2Cl)c2cc(C#CC(C)(O)c3nccs3)ncc21 (stereo not drawn) [Compound 17] | 4.9 | 6 | 17 | 8000 | 810 | 460
CC(C)n1cc(-c2ccnc(N)n2)c2cc(C#CC3(O)CCCC3)ncc21 [Compound 18] | 3.7 | 8 | 47 | 1500 | 450 | 340
CC(C)n1cc(-c2nc(N)ncc2Cl)c2cc(C#CC3(O)CCCC3)ncc21 [Compound 19] | 5.3 | 16 | 18 | 1200 | 430 | 160
COCCn1cc(-c2nc(N)ncc2Cl)c2cc(C#CC(C)(O)c3nccs3)ncc21 (stereo not drawn) [Compound 20] | 9.4 | 15 | 30 | 11000 | 5000 | 1000
CC(C)(O)Cn1cc(-c2nc(N)ncc2Cl)c2cc(C#CC3(O)CC3)ncc21 [Compound 21] | 18 | 3 | 13 | 2800 | 74 | 66
CC(C)(O)Cn1cc(-c2ccnc(N)n2)c2cc(C#CC3(O)CC3)ncc21 [Compound 22] | 20 | 9 | 75 | 1600 | 190 | 280
CC(C)(O)Cn1cc(-c2nc(N)ncc2Cl)c2cc(C#CC(C)(O)c3nccs3)ncc21 (stereo not drawn) [Compound 23] | 30 | 9 | 89 | 7700 | 9900 | 2500
CC(C)(O)C#Cc1cc2c(-c3nc(N)ncc3Cl)cn(CC(C)(C)O)c2cn1 [Compound 24] | 8.7 | 15 | 13 | 760 | 96 | 140
COCCn1cc(-c2nc(N)ncc2Cl)c2cc(C#CC(C)(C)O)ncc21 [Compound 25] | 9.9 | 20 | 11 | 190 | 63 | 110
COCCn1cc(-c2ccnc(N)n2)c2cc(C#CC(C)(O)c3nccs3)ncc21 (stereo not drawn) [Compound 26] | 49 | 19 | 120 | 15000 | 11000 | 5600
CC(C)(O)Cn1cc(-c2ccnc(N)n2)c2cc(C#CC(C)(O)c3nccs3)ncc21 (stereo not drawn) [Compound 27] | 25 | 70 | 360 | > 10000 | > 10000 | 9700
CC(C)(O)C#Cc1cc2c(-c3ccnc(N)n3)cn(CC3COC3)c2cn1 [Compound 28] | 17 | 49 | 84 | 5800 | 810 | 1200
CC(C)(O)Cn1cc(-c2ccnc(N)n2)c2cc(C#CC3(O)CCOC3)ncc21 (stereo not drawn) [Compound 29] | 140 | 110 | 6300 | > 10000 | > 10000 | > 10000
CN(C)C(=O)Cn1cc(-c2ccnc(N)n2)c2cc(C#CC(C)(C)O)ncc21 [Compound 30] | 120 | 930 | 1700 | > 10000 | 24000 | 12000
COCCn1cc(-c2ccnc(N)n2)c2cc(C#CC(C)(O)c3ncco3)ncc21 (stereo not drawn) [Compound 31] | 36 | 79 | 110 | > 10000 | 6400 | 1900
COCCn1cc(-c2ccnc(N)n2)c2cc(C#CC(C)(O)C3CC3)ncc21 (stereo not drawn) [Compound 32] | 59 | 40 | 89 | 1500 | 740 | 460
CC(C)(O)Cn1cc(-c2nc(N)ncc2Cl)c2cc(C#CC3(O)CCCC3)ncc21 [Compound 33] | 4.2 | 16 | 53 | 4100 | 1100 | 150
CN1CC(n2cc(-c3ccnc(N)n3)c3cc(C#CC(C)(C)O)ncc32)C1 [Compound 34] | 76 | 42 | 160 | 4100 | 240 | 330
CCC(O)(C#Cc1cc2c(-c3ccnc(N)n3)cn(CCOC)c2cn1)CC [Compound 35] | 120 | 150 | 470 | 3800 | 3000 | 2000
